As a reminder, the IC50 is the concentration that inhibits the measured activity by half. One may read the Ki as a dissociation constant, usually derived from enzyme kinetics or from competition with a known ligand.

These results are taken from publication PMC10820097, “Benzofuran Derivatives from Cortex Mori Radicis and Their Cholinesterase-Inhibitory Activity” (Molecules, 2024).

The target of series [1] is T1, AChE (EC 3.1.1.7) (Electrophorus electricus, UniProt O42275).
T1 construct: AChE (EC 3.1.1.7, from electric eel); purchased Aladdin Industrial Co., Ltd. (Shanghai, China); host or cells: electric eel (natural source)
T1 sequence (O42275 24-633): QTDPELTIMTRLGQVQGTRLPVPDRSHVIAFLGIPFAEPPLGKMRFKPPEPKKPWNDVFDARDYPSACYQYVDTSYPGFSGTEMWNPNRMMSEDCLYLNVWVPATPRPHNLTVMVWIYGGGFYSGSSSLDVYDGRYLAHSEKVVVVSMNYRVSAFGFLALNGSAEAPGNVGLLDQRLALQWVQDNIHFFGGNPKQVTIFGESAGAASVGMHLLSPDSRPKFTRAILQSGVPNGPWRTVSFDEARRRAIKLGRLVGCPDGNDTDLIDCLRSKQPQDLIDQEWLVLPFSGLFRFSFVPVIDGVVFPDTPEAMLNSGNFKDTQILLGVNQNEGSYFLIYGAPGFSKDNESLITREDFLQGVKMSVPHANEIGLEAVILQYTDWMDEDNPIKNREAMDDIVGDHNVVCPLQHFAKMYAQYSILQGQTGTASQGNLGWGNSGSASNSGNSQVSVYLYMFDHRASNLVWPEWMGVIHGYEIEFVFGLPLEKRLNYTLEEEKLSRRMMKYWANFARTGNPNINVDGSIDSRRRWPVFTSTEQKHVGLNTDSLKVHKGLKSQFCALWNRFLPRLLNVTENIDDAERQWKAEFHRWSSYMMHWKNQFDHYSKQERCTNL
As to the kind of experiment: biochemical. The series is classed as biochemical. As to conditions: for IC50: sample concentration that led to 50% enzyme activity loss, mean ± SD, triplicate. On the procedure:
(§1) AChE (EC 3.1.1.7, from electric eel), BChE (EC 3.1.1.8, from equine serum), acetylthiocholine iodide (ATCI), butyrylthiocholine iodide (BTCI), and 5,5′-dithiobis (2-nitrobenzoic acid) (DTNB) were purchased from Aladdin Industrial Co., Ltd. (Shanghai, China).
(§2) Briefly, AChE and BChE solutions (0.2 units/mL) and ATCI, BTCI, and DTNB solutions (10 mM) were prepared in PBS solution (0.1 M, pH 8.0). The test compound stock solutions (10 mM) were made using methanol, and five different concentrations of each compound were prepared by doubling the dilution with methanol to determine the half-maximal inhibitory concentration (IC50). Firstly, 160 μL of PBS, 2 μL of the test samples, 20 μL of AChE or BChE, and 10 μL of DTNB were mixed and preincubated at 37 °C for 10 min. Thereafter, 10 μL of ATCI or BTCI was added to initiate the reaction, which was incubated at 37 °C for 25 min. The absorbance was measured at 412 nm during incubation. The inhibition rate was calculated using the following formula: IR% = [(Ac − As)]/(Ac − Ab] × 100%, where Ab denotes the absorbance of the blank control (20 μL of water replacing the enzyme solution), Ac represents the absorbance of the control (2 μL of methanol replacing the sample solutions), and As denotes the absorbance of the sample. All of the tests for each sample were performed in triplicate. The IC50 value of each compound was obtained by plotting the inhibition rate against the logarithm of its concentration, and the data were expressed as the mean ± SD.

The target of series [2] is T2, BChE (EC 3.1.1.8) (Equus caballus, UniProt P81908).
T2 construct: BChE (EC 3.1.1.8, from equine serum); purchased Aladdin Industrial Co., Ltd. (Shanghai, China); host or cells: equine serum (natural source)
T2 sequence (P81908 whole entry): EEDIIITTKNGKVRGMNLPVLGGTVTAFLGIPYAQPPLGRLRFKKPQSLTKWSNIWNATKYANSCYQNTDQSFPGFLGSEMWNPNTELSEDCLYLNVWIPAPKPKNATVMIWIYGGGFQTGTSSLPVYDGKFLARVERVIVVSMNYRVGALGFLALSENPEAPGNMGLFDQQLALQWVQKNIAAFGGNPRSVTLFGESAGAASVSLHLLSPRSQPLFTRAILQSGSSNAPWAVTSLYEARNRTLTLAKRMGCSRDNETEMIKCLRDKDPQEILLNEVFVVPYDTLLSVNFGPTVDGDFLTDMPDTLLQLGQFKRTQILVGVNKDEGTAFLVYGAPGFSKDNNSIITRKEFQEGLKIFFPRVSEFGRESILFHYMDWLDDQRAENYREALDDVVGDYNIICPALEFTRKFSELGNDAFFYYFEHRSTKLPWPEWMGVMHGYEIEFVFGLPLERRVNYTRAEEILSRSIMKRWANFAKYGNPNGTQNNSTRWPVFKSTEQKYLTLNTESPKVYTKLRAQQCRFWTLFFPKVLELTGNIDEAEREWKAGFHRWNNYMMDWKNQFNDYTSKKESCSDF
Description: BChE inhibitory activity assay (modified Ellman's method). The class given is biochemical. As to conditions: for IC50: sample concentration that led to 50% enzyme activity loss, mean ± SD, triplicate; for BChE inhibitory effect, in words: up to 100 μM where stated. On the procedure:
as §1, §2

The target in series [3] is T2, BChE (EC 3.1.1.8). As to the kind of experiment: Kinetic study of BChE inhibition (Lineweaver–Burk and secondary plots). Conditions: for BChE Inhibition Type: Lineweaver–Burk plots; for BChE αKi: from secondary plot of 1/Vmax vs [I], binding to ES complex; for BChE α (thermodynamic cooperativity factor): αKi/Ki. The class given is biochemical. As for the experimental part:
To determine the inhibition modes of the compounds, enzyme kinetic studies were carried out for the structurally representative inhibitors, namely, compounds 1, 8, 9, 11, and 14. […] For this type of interaction, inhibitors can bind to the free enzyme (E) and the enzyme–substrate (ES) complex, forming EI and ESI complexes, respectively. The Ki and αKi values for the inhibitors were determined from the secondary plots of the slope (Km/Vm) and the vertical intercept (1/Vm) from the Lineweaver–Burk plot as functions of the inhibitor concentration, respectively (Figure S2 in Supplementary Materials), and the thermodynamic cooperativity factor α differed among the five structurally diverse inhibitors (Table 3).
as §1
Using the same protocol as the inhibitory activity assay, kinetic studies of BChE inhibition were performed with a series of concentrations of substrate BTCI, namely, 0.1, 0.2, 0.3, 0.4, and 0.5 mM or 0.2, 0.4, 0.5, 0.6, and 0.7 mM. Three concentrations of each test compound were selected according to the IC50 value. The detection of absorbance was conducted during the enzymatic reaction at 10 min, 20 min, and 25 min. The change in absorbance per minute was referred to as the velocity of the enzyme-promoting reaction. The Lineweaver–Burk plots (double-reciprocal plots) were created by plotting the reciprocal of velocity (1/V) against the reciprocal of BTCI concentration (1/[BTCI]) for a compound at three concentrations, and the kinetic parameters, Michaelis constant (Km), and maximum velocity (Vmax) obtained therefrom were used to check the inhibition modes. The value of the inhibitor constant Ki was determined by referencing the secondary plot of the slope of the double-reciprocal lines (from the Lineweaver–Burk plot) as a function of [I], and the x intercept was equal to −Ki. Another secondary plot was fitted by 1/Vmax as a function of the inhibitor concentration [I], and the value of −αKi can be determined to be the x intercept therefrom.

In series [4] the test system is BChE. The arrangement: method as in PMID 29786669. As to conditions: read-out: BChE IC50 in previous research; cited from earlier work.
Series [5] is described as follows: cis-trans photoisomerization under UV exposure (HPLC detection). The series is classed as physicochemical. As to conditions: UV exposure at 254 and 365 nm. From the text: The NMR data of 6 (Table 1 and Table 2) were identical to those of nigranol A previously isolated from Morus nigra Linn. The Δ7,8 double bond of nigranol A was formerly determined to be a Z-configuration according to the relatively large coupling constant (12.8 Hz) between H-8 and H-9, which is not applicable and convincing in view of the freely rotating single bond between C-8 and C-9. […] Fortunately, the crystals of compounds 1 and 6 were obtained, and single-crystal X-ray diffraction (XRD) analyses were conducted to determine the configuration of the Δ7,8 double bond. As a result, the isobutene moiety (C-9) and the carbonyl group (C-13), the larger substituent groups for C-8 and C-7, respectively, existed in cis- and trans-conformations in compounds 1 and 6, respectively (Figure 3). Therefore, compound 1 was determined to be (Z)-6-hydroxy-3-(3-methylbut-2-en-1-ylidene)benzofuran-2(3H)-one and named albaphenol A, while nigranol A (6) was revised as (E)-6-hydroxy-3-(3-methylbut-2-en-1-ylidene)benzofuran-2(3H)-one. […] Due to the cis–trans tautomerism also taking place slowly under natural light, the samples were stored in a 4 °C refrigerator under dark conditions, and the crystallizations of the two compounds were induced in nearly saturated methanol solution under the same conditions.

Series [6] deals with BChE. The arrangement: method as in PMID 31459768. Conditions: cited from earlier work.
Setting [7] is: from secondary plot of slope of Lineweaver–Burk lines vs [I], binding to free enzyme, read-out: BChE Ki.

“And” between values parts separate entries of the source, which are not always exact repeats. Equal entries are not always repeated. Where two headings read alike, the source gives them in different places.

Regarding `COc1cc(O)cc(-c2cc3cc(O)c(OC)cc3o2)c1` [Compound 7, moracin B], the IC50 in series [1] and in series [2] (read-out: IC50 BChE) was above 100 µM each time. Further, the “BChE inhibitory effect, in words” value in series [2] was “did not inhibit”.
In the case of `COc1cc(O)c(CC=C(C)C)c(-c2cc3ccc(O)cc3o2)c1CC=C(C)C` [Compound 16, mulberrofuran N], the IC50 in series [1] was above 100 µM; in series [2] (read-out: IC50 BChE), 32.8 ± 4.2 µM.
`CC(C)=CCc1c(O)cc(-c2cc3ccc(O)cc3o2)cc1O` [Compound 8, moracin C]: the IC50 in series [1] is above 100 µM. Also, the IC50 in series [2] (read-out: IC50 BChE) was found to be 27.9 ± 3.5 µM. Also, in series [3], the “BChE Inhibition Type” value is “Mixed competitive”, the “BChE αKi” value turned out to be 71.1 µM and the “BChE α (thermodynamic cooperativity factor)” value is 5.55. For the same compound, the Ki in series [3] (setting [7]) turned out to be 12.8 µM.
`Oc1cc(O)cc(-c2cc3ccc(O)cc3o2)c1` [Compound 10, moracin M]: the IC50 in series [1] was above 100 µM; in series [2] (read-out: IC50 BChE), above 100 µM; in series [4], 38.1 µM. In addition, the “BChE inhibitory effect, in words” value in series [2] is “did not inhibit”.
`CC(C)=CCc1cc2cc(-c3cc(O)cc(O)c3)oc2cc1O` [Compound 11, moracin N] registered an IC50 in series [1] of 40.5 ± 4.7 µM. In addition, in series [2] (read-out: IC50 BChE), the IC50 was found to be 13.5 ± 1.6 µM. For the same compound, in series [3], the “BChE Inhibition Type” value is “Noncompetitive”, the “BChE αKi” value is 13.3 µM and the “BChE α (thermodynamic cooperativity factor)” value is given as 1.05. For the same compound, the Ki in series [3] (setting [7]) came to 12.7 µM.
For the compound `CC(C)=C/C=C1/C(=O)Oc2cc(O)ccc21` [Compound 6, (E)-6-hydroxy-3-(3-methylbut-2-en-1-ylidene)benzofuran-2(3H)-one], the IC50 in series [1] was above 100 µM; in series [2] (read-out: IC50 BChE) it was 94.8 µM and > 100 µM. Moreover, the “AChE inhibitory effect, in words” value in series [1] (up to 100 μM where stated) is given as “no obvious inhibition”. The “BChE inhibitory effect, in words” value in series [2] is on record as “no obvious inhibition”. The “time to almost reach equilibrium of cis-trans photoisomerization (1 and 6, ratio approximately 1:1)” value in series [5] was at most 30 min.
Turning to `CCOC(=O)C(CC=C(C)C)c1ccc(O)cc1O` (centres unmarked) [Compound 4, ethyl 2-(2,4-dihydroxyphenyl)-5-methylhex-4-enoate], the values for the IC50 in series [1] and in series [2] (read-out: IC50 BChE) were above 100 µM and 61 ± 3.4 µM, respectively.
The compound `CC(C)=CCc1c(O)cc2c(c1-c1cc3ccc(O)cc3o1)C=CC(C)(C)O2` [Compound 14, cathafuran C] returned an IC50 in series [1] above 100 µM. Further, in series [2], the “selective index (AChE IC50/BChE IC50 ratio)” value is recorded as “over 38”. The IC50 in series [2] (read-out: IC50 BChE) is 2.6 ± 0.2 µM. Moreover, in series [3], the “BChE Inhibition Type” value was “Competitive”, the “BChE αKi” value came to 22.7 µM and the “BChE α (thermodynamic cooperativity factor)” value is 13.35. Besides, the Ki in series [3] (setting [7]) came to 1.7 µM.
`CC(C)=CCCC1(C)C=Cc2c(ccc3cc(-c4cc(O)cc(O)c4CC=C(C)C)oc23)O1` (centres unmarked) [mulberrofuran D2]: the IC50 in series [6] was 1.51 µM.
For the compound `COC(=O)C(CC=C(C)C)c1ccc(O)cc1O` (centres unmarked) [Compound 3, methyl 2-(2,4-dihydroxyphenyl)-5-methylhex-4-enoate], the IC50 in series [1] and in series [2] (read-out: IC50 BChE) was above 100 µM in each case.
As for `COC(=O)/C(=C/C=C(C)C)c1ccc(O)cc1O` [Compound 2, albaphenol B], the IC50 in series [1] and in series [2] (read-out: IC50 BChE) was above 100 µM each time.
`CC1(C)C=Cc2c(O)cc(-c3cc4ccc(O)cc4o3)cc2O1` [Compound 9, moracin D] registered an IC50 in series [1] of 81.2 ± 3.9 µM. For the same compound, in series [2] (IC50 BChE), the IC50 was determined as 9.5 ± 3.2 µM. Further, in series [3], the Ki was found to be 5.7 µM, the “BChE Inhibition Type” value was “Mixed competitive”, the “BChE αKi” value was 25.2 µM and the “BChE α (thermodynamic cooperativity factor)” value is 4.42.
Turning to `CC(C)(O)CCC(=O)c1ccc(O)cc1O` [Compound 5, 1-(2,4-dihydroxyphenyl)-4-hydroxy-4-methylpentan-1-one], the IC50 in series [1] and in series [2] (read-out: IC50 BChE) was above 100 µM each time.
For the compound `CC(C)=CCC/C(C)=C/Cc1c(O)ccc2cc(-c3cc(O)cc(O)c3CC=C(C)C)oc12` [mulberrofuran D], the IC50 in series [6] was 6.12 µM.
Compound `CC(C)=C/C=C1\C(=O)Oc2cc(O)ccc21` [Compound 1, (Z)-6-hydroxy-3-(3-methylbut-2-en-1-ylidene)benzofuran-2(3H)-one] registered an IC50 in series [1] above 100 µM. For the same compound, the IC50 in series [2] (read-out: IC50 BChE) was determined as 45.5 ± 5.9 µM. Also, in series [3], the “BChE Inhibition Type” value is recorded as “Mixed uncompetitive”, the “BChE αKi” value was found to be 43.0 µM and the “BChE α (thermodynamic cooperativity factor)” value was determined as 0.46. Besides, the Ki in series [3] (setting [7]) stood at 93.4 µM. In series [5], the “time to almost reach equilibrium of cis-trans photoisomerization (1 and 6, ratio approximately 1:1)” value was at most 30 min.
As for `CC(C)=CCc1c(O)cc(O)c(CC=C(C)C)c1-c1cc2ccc(O)cc2o1` [Compound 15, mulberrofuran V], the IC50 is above 100 µM in series [1] and 27.1 ± 6.8 µM in series [2] (read-out: IC50 BChE).
On to `CC1(C)Oc2cc3oc(-c4cc(O)cc(O)c4)cc3cc2C[C@H]1O` [Compound 13, moracin P], for which the “BChE inhibitory effect, in words” value in series [2] is listed as “neither moracin O (12) nor P (13) exhibited a significant inhibitory effect”. In addition, in series [4], the IC50 is 38 µM.
`CC(C)(O)C1Cc2cc3cc(-c4cc(O)cc(O)c4)oc3cc2O1` (centres unmarked) [Compound 12, moracin O]: the “BChE inhibitory effect, in words” value in series [2] is on record as “neither moracin O (12) nor P (13) exhibited a significant inhibitory effect”. In series [4], the IC50 is 28.2 µM.
